{"source": "patent US20170057948A1", "about": "“INDOLE-LIKE TRK RECEPTOR ANTAGONISTS” (Tallinn University of Technology, priority 2015, published 2017)", "key": {"TrkA [1]": {"biological_target": "T1, TrkA (Homo sapiens, UniProt P04629)", "T1 construct": "purchased ProQinase, Germany (custom-ordered assay service)", "T1 sequence (P04629 33-796)": "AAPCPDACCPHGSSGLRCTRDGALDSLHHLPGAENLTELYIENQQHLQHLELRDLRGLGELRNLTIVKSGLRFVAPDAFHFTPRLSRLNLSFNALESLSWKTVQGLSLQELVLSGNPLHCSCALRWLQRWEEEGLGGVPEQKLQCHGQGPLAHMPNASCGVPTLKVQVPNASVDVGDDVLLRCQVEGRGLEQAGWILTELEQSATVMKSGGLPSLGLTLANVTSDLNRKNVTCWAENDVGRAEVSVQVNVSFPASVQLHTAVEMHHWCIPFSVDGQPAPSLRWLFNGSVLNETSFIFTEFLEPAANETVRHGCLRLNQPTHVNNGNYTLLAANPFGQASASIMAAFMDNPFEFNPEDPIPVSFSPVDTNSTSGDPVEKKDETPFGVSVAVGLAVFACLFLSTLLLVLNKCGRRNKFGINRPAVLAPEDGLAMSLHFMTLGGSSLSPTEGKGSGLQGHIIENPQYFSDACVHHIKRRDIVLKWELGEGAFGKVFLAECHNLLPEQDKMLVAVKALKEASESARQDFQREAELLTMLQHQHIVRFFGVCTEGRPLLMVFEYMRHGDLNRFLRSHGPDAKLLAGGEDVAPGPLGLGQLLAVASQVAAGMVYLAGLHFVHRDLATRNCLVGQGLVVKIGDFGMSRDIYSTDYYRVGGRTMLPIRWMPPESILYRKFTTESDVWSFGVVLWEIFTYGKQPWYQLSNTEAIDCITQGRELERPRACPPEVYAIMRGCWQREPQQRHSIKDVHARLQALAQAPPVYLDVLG", "experiment": "In vitro kinase profiling (48 kinases), TrkA", "type": "biochemical", "conditions": "1 μM concentration; read-out: residual activity of TrkA", "description": "According to the results, at concentration of 100 nM all compounds were relatively TrkA specific inhibiting only up to 3 off-target kinases, while reducing the activity of TrkA by at least 82% at 100 nM concentration and 94% at 1 μM concentration. At 100 nM, 2a25 was able to inhibit only TrkA. […] Kinases that were inhibited by most of the compounds at 1 concentration included Aurora-B, CAMKK2, CHK2, IRAK4, LCK, and MAP3K11.\n(§1) The biochemical kinase assays were custom ordered from ProQinase, Germany."}, "Syk [2]": {"biological_target": "T2, Syk (Homo sapiens, UniProt P43405)", "experiment": "In vitro kinase profiling (48 kinases), Syk", "type": "biochemical", "set-up": "Aurora-B, CaMMK2, Chk2, Irak4, Lck, Map3K11, Syn aa1-635, TrkA, TrkB, and TrkC; purchased ProQinase, Germany (custom-ordered assay service)", "conditions": "for inhibition of Syk: own experiments", "description": "as §1"}, "Syk [3]": {"biological_target": "T2, Syk", "conditions": "cited from earlier work"}, "[4]": {"system": "cortical neurons, PC-12 cells or dividing MG87/TRKB/luc/Elk1 cells", "experiment": "Toxic or adverse effect on cells (summary statement)", "type": "cell-based", "description": "The Trk antagonists of the invention share a similar indole-like basic structure; however, substituent substitution yielded compounds with markedly high activity and specificity for the Trk family."}, "TrkA [5]": {"biological_target": "T3, TrkA (Rattus norvegicus, UniProt P35739)", "T3 construct": "endogenous in cells; host or cells: PC-12 and PC-12/luc/Elk1 (rat pheochromocytoma)", "T3 sequence (P35739 33-799)": "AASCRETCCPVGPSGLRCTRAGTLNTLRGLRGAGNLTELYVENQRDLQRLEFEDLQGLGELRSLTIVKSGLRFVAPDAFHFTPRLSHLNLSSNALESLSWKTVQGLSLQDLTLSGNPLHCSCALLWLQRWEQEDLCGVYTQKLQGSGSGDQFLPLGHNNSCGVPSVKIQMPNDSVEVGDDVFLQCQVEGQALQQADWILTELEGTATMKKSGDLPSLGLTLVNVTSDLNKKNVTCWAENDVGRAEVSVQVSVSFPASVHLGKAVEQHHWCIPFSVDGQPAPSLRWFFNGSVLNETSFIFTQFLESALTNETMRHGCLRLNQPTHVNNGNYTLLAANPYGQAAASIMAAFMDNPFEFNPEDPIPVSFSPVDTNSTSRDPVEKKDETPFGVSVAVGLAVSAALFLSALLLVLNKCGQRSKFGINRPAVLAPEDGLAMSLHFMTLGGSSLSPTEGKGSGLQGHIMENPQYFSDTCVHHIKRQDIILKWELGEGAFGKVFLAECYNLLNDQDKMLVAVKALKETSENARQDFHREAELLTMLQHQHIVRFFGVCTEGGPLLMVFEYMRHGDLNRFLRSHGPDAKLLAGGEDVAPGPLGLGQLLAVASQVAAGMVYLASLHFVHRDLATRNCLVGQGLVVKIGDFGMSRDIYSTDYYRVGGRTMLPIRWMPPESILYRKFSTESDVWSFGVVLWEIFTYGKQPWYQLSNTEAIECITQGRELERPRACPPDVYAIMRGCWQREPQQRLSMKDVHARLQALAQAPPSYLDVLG", "experiment": "PC-12/luc/Elk1 luciferase reporter cellular assay (NGF-induced)", "type": "cell-based", "conditions": "50 ng/ml NGF, 18 h treatment", "source_text": "A stably transfected cell line was generated in order to assess the capability of the compounds to inhibit the activation of TrkA receptor in the natural (neural) cellular context. Once the endogenic TrkA of the PC-12/luc/Elk1 cell line becomes activated, the downstream events result in phosphorylation of Elk1, the GAL4-dbd fused to Elk1 binds then to GAL4 UAS and activates the transcription of luciferase (FIG. 3). To address the suitability of the generated system for screening application, the Z′-factor was determined (see also Examples section). […] Z′-factor value above 0.5 is considered an indication of a high quality assay. The timeframe of 18 hours with the highest Z′-factor value was chosen for subsequent experiments.\nPC-12 (rat adrenal pheochromocytoma cell line) cells were transfected using LIPOD293 DNA In Vitro Transfection Reagent (SignaGen) with 1 μg of pFA2-Elk1 plasmid and 4 μg of pFR-LUC plasmid (PathDetect Elk1 trans-Reporting System; Agilent Technologies). pFA2-Elk1 plasmid codes for the fusion protein consisting of GAL4-dbd (DNA-binding domain) followed by Elk1 transcription factor and contains Geneticin G418 resistance gene neomycin. pFR-LUC plasmid codes for GAL4 upstream activation sequence (UAS) followed by luciferase reporter gene. A puromycin resistance gene was introduced to the pFR-LUC plasmid using Bst1107I and NdeI restrictases from pGL4.22[luc2CP/Puro] (Promega). The selection of transfected cells was initiated two days after the transfection with addition of 300 μg/ml of G418 (Sigma) and 0.75 μg/ml of puromycin (Sigma-Aldrich) and continued for about one and a half months until distinct cell colonies could be picked, plated, and tested for responsiveness to NGF. Generated cell line, called hereafter PC-12/luc/Elk1, was maintained in Dulbecco's Modified Eagle's Medium (DMEM; PAA) containing 6% fetal bovine serum (FBS; PAA), 6% horse serum (HS; PAA), 1% penicillin/streptomycin (PS; Gibco), 300 μg/ml of Geneticin G418, and 0.75 μg/ml of puromycin. […] PC-12 cells were maintained in DMEM containing 6% FBS, 6% HS, and 1% PS.\nPC-12/luc/Elk1 cells were plated one day before the assay on 96 well plates in 25,000 cells per well. […] The plate was subjected to 10 minutes of shaking and, thereafter, analyzed using TECAN plate reader. […]\nThe IC50's of the compounds were determined using cellular and biochemical assays. In the cellular assays, using PC-12/luc/Elk1 and MG87/TrkB/luc/Elk1 cells, the compounds were assessed in gradual dilutions of the compounds in triplets together with NGF or BDNF (Peprotech), respectively. TrkA inhibition was determined using same methodology as for measuring the Z′-factor with 18 h treatment time. […]"}, "Syk [6]": {"biological_target": "T2, Syk", "conditions": "1 μM concentration; cited from earlier work"}, "TrkA [7]": {"biological_target": "T1, TrkA", "conditions": "1 μM concentration; cited from earlier work"}, "TrkB": {"biological_target": "T4, TrkB (Rattus norvegicus, UniProt Q63604)", "T4 construct": "expressed in transfected cells; host or cells: MG87/TrkB/luc/Elk1", "T4 sequence (Q63604 32-821)": "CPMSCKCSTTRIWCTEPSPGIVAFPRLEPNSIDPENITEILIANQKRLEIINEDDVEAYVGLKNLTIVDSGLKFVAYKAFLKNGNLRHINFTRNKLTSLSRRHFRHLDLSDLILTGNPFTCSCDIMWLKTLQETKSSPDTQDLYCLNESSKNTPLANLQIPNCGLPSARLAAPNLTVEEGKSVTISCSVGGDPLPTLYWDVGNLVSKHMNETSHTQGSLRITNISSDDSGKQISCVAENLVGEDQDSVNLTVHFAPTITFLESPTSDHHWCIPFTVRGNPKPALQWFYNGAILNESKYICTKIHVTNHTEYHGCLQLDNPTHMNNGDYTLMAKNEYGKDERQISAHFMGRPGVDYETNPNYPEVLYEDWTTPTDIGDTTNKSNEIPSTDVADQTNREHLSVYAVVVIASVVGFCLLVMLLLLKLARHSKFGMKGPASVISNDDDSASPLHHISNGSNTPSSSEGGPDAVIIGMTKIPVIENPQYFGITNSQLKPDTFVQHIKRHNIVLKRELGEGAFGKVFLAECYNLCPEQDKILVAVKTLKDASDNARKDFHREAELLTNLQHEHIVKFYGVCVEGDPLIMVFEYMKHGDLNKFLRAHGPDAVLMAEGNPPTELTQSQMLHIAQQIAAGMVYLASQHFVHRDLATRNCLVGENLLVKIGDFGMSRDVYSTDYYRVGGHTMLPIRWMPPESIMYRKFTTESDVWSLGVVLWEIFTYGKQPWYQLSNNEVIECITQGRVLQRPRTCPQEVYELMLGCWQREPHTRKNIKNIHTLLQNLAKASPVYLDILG", "experiment": "Western blot of phosphorylated TrkB in MG87/TrkB/luc/Elk1 cells", "type": "cell-based", "conditions": "concurrently with BDNF, statistically significant reduction at 1 μM", "description": "(§2) The compounds were tested on PC-12 and MG87/TrkB/luc/Elk1 cells that express TrkA and TrkB, respectively. The cells were treated concurrently with NGF or BDNF and the compounds at three different concentrations. The levels of phosphorylated kinases were assessed using respective antibodies and further quantification of western blot signals. […] Additionally, in these two distinct cellular systems the activity of the Trk proteins may be incomparable due to their different concentration or interaction partners that can affect their behavior. For this reason, most probably there is no big selectivity of these compounds for the Trk kinases which is expected, as the ATP-binding pockets of Trk proteins are highly similar.\n(§3) The PC-12 and MG87/TrkB/luc/Elk1 cells were plated on 6-well plates one day prior to the assay. Cells were treated for 10 minutes with compounds and simultaneously with 50 ng/ml of NGF (PC-12 cells) or BDNF (MG87/TrkB/luc/Elk1 cells). 0.1% of DMSO was used to determine the base level, 0.1% of DMSO concurrently with 50 ng/ml of NGF or BDNF served as a negative control and 0.1% of DMSO concurrently with 5 nM of AZ-23 as a positive control. Thereafter, western blotting was performed as described previously. Antibodies used included: rabbit anti-TrkA (#06-574; 1:1000) from Millipore; rabbit anti phospho-TrkA (#9141; 1:1000), rabbit anti phospho-TrkA/TrkB (#4619; 1:1000), rabbit anti-TrkB (#4603; 1:1000) and rabbit anti phospho-Akt (#4058; 1:3000) from Cell Signaling; mouse anti phosphor-Erk1/2 (#sc-7383; 1:1000) from Santa Cruz and anti-tubulinβ clone E7 (1:1000) from Prof. Michael Klymkovsky."}, "TrkA [8]": {"biological_target": "T3, TrkA", "experiment": "Western blot of phosphorylated TrkA in PC-12 cells", "type": "cell-based", "conditions": "concurrently with NGF, statistically significant reduction at 1 μM", "description": "as §2, §3"}, "Akt and Erk1/2": {"system": "Akt and Erk1/2", "experiment": "Western blot of phosphorylated downstream kinases", "type": "cell-based", "conditions": "compared to NGF or BDNF alone", "description": "as §2, §3"}, "[9]": {"biological_target": "48 kinases representing the human kinome", "experiment": "In vitro kinase profiling, panel of 48 kinases (off-targets)", "type": "biochemical", "conditions": "100 nM", "description": "as §1"}, "MG87/TrkB/luc/Elk1 cells": {"system": "MG87/TrkB/luc/Elk1 cells", "experiment": "Cellular ATP content, CellTiter-Glo viability assay", "type": "cell-based", "conditions": "different concentrations, 24 h", "description": "ATP was measured at least from 8 different wells per treatment condition."}, "Aqueous solubility": {"experiment": "Aqueous solubility", "type": "physicochemical", "conditions": "room temperature"}, "Rat cortical cells": {"system": "Rat cortical cells", "experiment": "Viability of primary cortical neurons (neuron count)", "type": "cell-based", "conditions": "24 h, even at 1 μM concentration", "procedure": "Neurons were grown in NEUROBASAL, a medium supplemented with B27 with phenol red on ploy-L-lysine-coated 35 mm glass bottomed dishes. Culture media and supplements were obtained from Invitrogen (Carlsbad, Calif.). For viability measurements neurons were first transfected with neuronal maker, pAAV-hSyn-DsRedExpress obtained from Addgene (Cambridge, Mass.) allowing better to assess the morphology of individual neurons. Briefly, the condition medium was replaced with 100 μL Opti-MEM 1 medium, containing 2% Lipofectamine 2000 and 1-2 μg of total DNA. Neurons were incubated for 3-4 hrs, after which fresh medium was added."}, "In vivo toxicology study": {"experiment": "In vivo toxicology study", "conditions": "C57/B16 mice"}}, "data": [{"smiles": "Cn1cc(/C=C2\\C(=O)Nc3ccc(S(N)(=O)=O)cc32)c2ccccc21", "note": "[Compound 2a21]", "values": [{"measurement": "remaining activity at 1 µM", "setting": "TrkA [1]", "value": 2, "unit": "%"}, {"measurement": "inhibition of Syk", "setting": "Syk [2]", "value": "failed to inhibit Syk at significant levels"}, {"measurement": "remaining activity at 1 µM", "setting": "Syk [2]; read-out: residual activity of Syk", "value": 47, "unit": "%"}, {"measurement": "reported effect on Syk activity", "setting": "Syk [3]", "value": "Syk inhibitors"}, {"measurement": "toxic or adverse effect on cells", "setting": "[4]", "value": "no toxic or adverse effect"}, {"measurement": "IC50", "setting": "TrkA [5]", "value": "≤ 100", "unit": "nM"}, {"measurement": "residual activity of Syk (Gao et al.)", "setting": "Syk [6]", "value": 38, "unit": "%"}, {"measurement": "residual activity of TrkA (Gao et al.)", "setting": "TrkA [7]", "value": 1, "unit": "%"}]}, {"smiles": "COc1ccc2c(c1)c(/C=C1\\C(=O)Nc3ccc(S(N)(=O)=O)cc31)cn2C", "note": "[Compound 2a22]", "values": [{"measurement": "phosphorylation of TrkB", "setting": "TrkB", "value": "effectively inhibited"}, {"measurement": "phosphorylation of TrkA", "setting": "TrkA [8]", "value": "effectively inhibited"}, {"measurement": "phosphorylation of downstream kinases Akt and Erk1/2", "setting": "Akt and Erk1/2", "value": "diminished"}, {"measurement": "toxic or adverse effect on cells", "setting": "[4]", "value": "no toxic or adverse effect"}]}, {"smiles": "COc1ccc2[nH]cc(/C=C3\\C(=O)Nc4ccc(S(N)(=O)=O)cc43)c2c1", "note": "[Compound 2a23, (Z)-3-((5-methoxy-1H-indol-3-yl)methylene)-2-oxindole-5-sulfonamide]", "values": [{"measurement": "inhibition of Syk", "setting": "Syk [2]", "value": "failed to inhibit Syk at significant levels"}, {"measurement": "reported effect on Syk activity", "setting": "Syk [3]", "value": "Syk inhibitors"}, {"measurement": "toxic or adverse effect on cells", "setting": "[4]", "value": "no toxic or adverse effect"}, {"measurement": "IC50", "setting": "TrkA [5]", "value": "≤ 100", "unit": "nM"}, {"measurement": "kinases whose activity was reduced at least by 50%", "setting": "[9]", "value": "only one kinase in addition to the Trk kinases"}]}, {"smiles": "COc1ccc2c(c1)c(/C=C1\\C(=O)Nc3ccc(S(=O)(=O)N(C)C)cc31)cn2C", "note": "[Compound 2a25, (Z)-3-((5-methoxy-1-methyl-1H-indol-3-yl)methylene)-N,N-dimethyl-2-oxindole-5-sulfonamide]", "values": [{"measurement": "phosphorylation of TrkB", "setting": "TrkB", "value": "effectively inhibited"}, {"measurement": "phosphorylation of TrkA", "setting": "TrkA [8]", "value": "effectively inhibited"}, {"measurement": "phosphorylation of downstream kinases Akt and Erk1/2", "setting": "Akt and Erk1/2", "value": "diminished"}, {"measurement": "reported effect on Syk activity", "setting": "Syk [3]", "value": "not to suppress Syk activity"}, {"measurement": "toxic or adverse effect on cells", "setting": "[4]", "value": "no toxic or adverse effect"}, {"measurement": "IC50", "setting": "TrkA [5]", "value": "≤ 100", "unit": "nM"}, {"measurement": "cell viability (cellular ATP content)", "setting": "MG87/TrkB/luc/Elk1 cells", "value": "no effect"}, {"measurement": "solubility", "setting": "Aqueous solubility; aqueous medium (not further specified)", "value": "3.2 ± 0.1", "unit": "µg/mL"}, {"measurement": "aqueous solubility", "setting": "Aqueous solubility", "value": "7.8 ± 0.2", "unit": "µM"}, {"measurement": "number of viable neurons", "setting": "Rat cortical cells", "value": "No reduction"}, {"measurement": "toxic effects in mice", "setting": "In vivo toxicology study", "value": "no toxic effects"}, {"measurement": "kinases whose activity was reduced at least by 50%", "setting": "[9]", "value": "only TrkA"}]}, {"smiles": "CN(C)S(=O)(=O)c1ccc2c(c1)/C(=C/c1cn(C)c3ccc(O)cc13)C(=O)N2", "note": "[Compound 3a25, (Z)-3-((5-hydroxy-1-methyl-1H-indol-3-yl)methylene)-N,N-dimethyl-2-oxindole-5-sulfonamide]", "values": [{"measurement": "toxic or adverse effect on cells", "setting": "[4]", "value": "no toxic or adverse effect"}, {"measurement": "IC50", "setting": "TrkA [5]", "value": "≤ 100", "unit": "nM"}, {"measurement": "kinases whose activity was reduced at least by 50%", "setting": "[9]", "value": "only one kinase in addition to the Trk kinases"}]}, {"smiles": "CNS(=O)(=O)c1ccc2c(c1)/C(=C/c1cn(C)c3ccc(OC)cc13)C(=O)N2", "note": "[Compound 4a22, (Z)-3-((5-methoxy-1-methyl-1H-indol-3-yl)methylene)-N-methyl-2-oxindole-5-sulfonamide]", "values": [{"measurement": "phosphorylation of TrkB", "setting": "TrkB", "value": "effectively inhibited"}, {"measurement": "phosphorylation of TrkA", "setting": "TrkA [8]", "value": "effectively inhibited"}, {"measurement": "phosphorylation of downstream kinases Akt and Erk1/2", "setting": "Akt and Erk1/2", "value": "diminished"}, {"measurement": "toxic or adverse effect on cells", "setting": "[4]", "value": "no toxic or adverse effect"}]}]}
